According to US20150133434A1, “Compositions and Methods for Reactivating Latent Immunodeficiency Virus” (priority 2012, published 2015):
“Also recorded” adds a separate entry of the source.

Experiments:
[1] = system: latent HIV-1 in Bcl-2-transduced resting CD4+ T cells; type: cell-based; conditions: 24-72 h, average of two donors
[2] = system: HIV LTR promoter driving destabilized GFP in Jurkat cells; test: Single-cell time-lapse fluorescence microscopy of LTR-GFP Jurkat cells (two-state transcription model); type: cell-based
Method: Lentiviral vectors expressing the LTR-GFP cassette in the absence of Tat were used to infect 5×10^5 Jurkat cells at a multiplicity of infection <0.1, resulting in 25,000-50,000 infected cells each presumably with a unique integration site. Cells were then sorted by FACS to isolate green fluorescent protein-labeled (GFP^+) cells and fluorescently imaged on glass-bottom dishes in RPMI 1640 with 10% fetal calf serum and 1% penicillin-streptomycin and 1 μM JQ1 at t=0 h for the treated population. The imaging took place in humidified conditions at 37° C. and 5% CO2 for 12-24 hours with a 40× (1.2 NA) oil-immersion objective on a Zeiss Observer Z1 microscope equipped with an automated linear-encoded X-Y stage. Image processing and cell tracking were performed in Matlab™ with an in-house algorithm (Weinberger et al. Nature Genet 2008; 40:466-70) and a single 12-hour experiment could generate up to 1000 single-cell trajectories for analysis.
For each trajectory, noise autocorrelation (Φ(t)) and magnitude (CV2) were calculated using an established noise processing algorithm (Weinberger et al. Nature Genet 2008; 40:466-70; Austin D W et al., Nature 2006; 439:608-11) A published theory (Simpson M L, et al. J Theor Biol 2004; 229:383-94; Cox C D, et al. Proc Natl Acad Sci USA 2008; 105:10809-14) of the two-state transcriptional bursting model yields analytical expressions for the autocorrelation of the noise, Φ(τ), and noise magnitude. Derivations and calculated burst size and frequency have been reported (Singh A, et al. Biophysical Journal 2010; 98:L32-L4). Exogenous JQ1 addition can change either mean fluorescence, variability of expression (defined by the coefficient of variation, CV), or both. Modeling of 2-state transcription enables the differentiation between modulations in transcriptional initiation (Dkon) or in the burst size (DT/koff).
To biophysically characterize the Tat-independent JQ1 effect on the HIV LTR, single-cell time-lapse fluorescence microscopy was performed on ˜2,000 Jurkat cells where each cell carried a different integration site of the LTR promoter driving a destabilized GFP reporter (FIG. 24A). Mean fluorescence intensity (MFI) and the magnitude of intensity fluctuations (i.e. the ‘noise’) were quantified for sub-clusters of polyclonal cells in response to JQ1 treatment (FIG. 24). The data was analyzed using an established two-state model of episodic transcription in which the LTR switches between a transcriptional OFF state, where RNA polymerase II is stalled, and a transcriptional ON state where elongation occurs and multiple mRNA transcripts are produced at a rate=T (FIG. 24B). In this model, promoter switching occurs with rates kon and koff which generates pulses or bursts of transcription.
To determine how JQ1 influences these biophysical parameters (koff, kon, T), changes in LTR MFI and noise (measured by the coefficient of variation, CV, which is defined as the standard deviation over the mean) were examined and compared to the untreated LTR (FIG. 24C, D). By qualifying MFI and CV in time-lapse trajectories, changes in both burst frequency (kon) and burst size, or the # of mRNA produced per activity pulse, (T/koff) can be determined.

[3] = system: latent HIV (clone R7/E-/GFP) in Jurkat T cells; test: Reactivation of latent HIV in polyclonal Jurkat T cells (clone R7/E-/GFP), flow cytometry of GFP; type: cell-based, HIV-1
Method: A polyclonal population of Jurkat T cells containing latent HIV (clone R7/E-/GFP) was treated with increasing amounts of JQ1. This viral clone contains a frameshift mutation in the viral Env gene to prevent viral spread and expresses GFP in the Nef open reading frame, which allows separation of actively infected GFP^+ from GFP^− cells by cell sorting. GFP^− cells, which are mostly uninfected but contain a small fraction of latently infected cells with silenced HIV transcription, were treated with JQ1. Activation of transcription was measured by flow cytometry of GFP. […] Stimulation of cells with JQ1 produced up to fivefold more GFP-expressing cells than control-treated cells.
HIV clones R7/E-/GFP and NL4-3/E-/GFP-IRES-nef were derived from pR7-GFP and pNLENG1-EGFP by mutating the Env gene by inserting an early stop codon in the NdeI site. […]. Jurkat cells were spininfected with 25 ng of p24 per 10^6 cells, and GFP^− cells where collected in two rounds of cell sorting 5 and 15 days after infection. The expanded population of GFP^− cells, composed of uninfected and latently infected cells, was seeded in 96-well plates and treated with the indicated concentration of drugs in duplicates. The percentage of GFP^+ cells was detected after 24 h at the MACSQuant VYB FACS analyzer. Data are expressed as the mean percentage of GFP^+ cells, subtracting the average percentage of spontaneous GFP-reactivation in the untreated samples. (A) Jurkat cells containing latent R7/E-/GFP virus were treated with JQ1 or (R)-JQ1 in combination with Prostratin (0.5 μM), SAHA (2.5 μM), TNFα (1 ng/μl), or control at the indicated concentrations for 18 h, followed by flow cytometry analysis. […] Results represent average of two independent experiments. All treatments in (A) and (B) on the X axis are in μM.

Cc1sc2c(c1C)C(c1ccc(Cl)cc1)=N[C@@H](CC(=O)OC(C)(C)C)c1nnc(C)n1-2 [JQ1, tert-Butyl 2-((6S)-4-(4-chlorophenyl)-2,3,9-trimethyl-6H-thieno[3,2-f][1,2,4]triazolo[4,3-a][1,4]diazepin-6-yl)acetate]
reactivation of latent HIV-1 relative to costimulation with αCD3 and αCD28 antibodies [1]: ~14%
delay in transcriptional initiation ([2]; 1 μM JQ1, average): ~50 min
increase of mRNAs per pulse of transcriptional activity ([2]; 1 μM JQ1, average): ~15 mRNAs per pulse
LTR noise (coefficient of variation) ([2]; 1 μM JQ1 vs untreated): increases
average dwell time in the OFF state (1/kon) ([2]; 1 μM JQ1 vs untreated): increases
mean fluorescence intensity (MFI) ([2]; 1 μM JQ1 vs untreated): without a significant shift
transcription burst size (T/koff) ([2]; 1 μM JQ1 vs untreated): enhancement; also recorded: increases
GFP-expressing cells relative to control-treated cells ([3]; JQ1 alone): up to fivefold
effect of adding JQ1 with SAHA ([3]; co-treatment with SAHA 2.5 μM, FIG. 20A, B (both viral clones)): no additive or synergistic effects
effect of co-treatment with TNFα on the JQ1 effect ([3]; co-treatment with TNFα, FIG. 20A, B (both viral clones)): very modest enhancement
effect of adding JQ1 with prostratin ([3]; co-treatment with prostratin 0.5 μM, FIG. 20A, B (both viral clones)): Enhanced activation
reactivation of HIV-1 (GFP+ cells) ([3]; compound alone, increasing amounts): reactivated HIV-1 in a dose-dependent manner
